# Experimental data reported in article PMC8553373 (The Journal of Biological Chemistry, 2021).
# “Also recorded” adds a separate entry of the source. Read-outs that look alike come from different tables or passages of the source.
# Experiments:
# [1] = biological target: wild-type Nsp9COV19 as substrate of Nsp12COV19 NiRAN domain (Severe acute respiratory syndrome coronavirus 2, UniProt P0DTD1); format: biochemical; conditions: for Nsp9COV19 Cy3-modification, % of the signal of DMSO-only control reactions: 500 μM compound, 15 μM Nsp9COV19, 1 μM Nsp12COV19, triplicate
# SARS-CoV-2 [2] = format: cell-based
# Vero 81 cells = conditions: Vero 81, highest 50 μM concentration point
# Vero e6 cells = conditions: Vero e6, highest 50 μM concentration point
# SARS-CoV-2 [3] = conditions: cited from earlier work
# Nsp9COV19 = Nsp9COV19 (Severe acute respiratory syndrome coronavirus 2, UniProt P0DTD1); parameters: species or system SARS-CoV-2; conditions: native MS; binding ratios after incubation with 50 μM of each compound
Structure (SMILES),"Nsp9COV19 Cy3-modification, % of the signal of DMSO-only control reactions [1] [%]","inhibition of UMPylation reaction (in words) ([1]; UMPylation assays, discussion)",viral titer following SARS-CoV-2 infection (SARS-CoV-2 [2]),"viral titer following SARS-CoV-2 infection (SARS-CoV-2 [2]; Calu-3 cells, 15 μM, after 24 h)","viral titer following SARS-CoV-2 infection (SARS-CoV-2 [2]; Calu-3 cells, 15 μM, later time points (48, 72 h))",effect on cell proliferation (MTT) (Calu-3 cells),effect on cell proliferation (MTT) (Vero 81 cells),effect on cell proliferation (MTT) (Vero e6 cells),SARS-CoV-2 replication in in vitro cellular assays (SARS-CoV-2 [3]),relative Nsp9COV19 binding / affinity (in words) (Nsp9COV19)
"C=C1C(=O)[C@]23[C@H](O)[C@H]1CC[C@H]2[C@@]12CO[C@]3(O)[C@@H](O)[C@@H]1C(C)(C)CC[C@@H]2O [Compound 1, Oridonin]",20 ± 6,significant levels of inhibition,reduce viral tite at all time points,approximately fivefold reduced,not maintained at later time points,no effect on cell proliferation detected,a degree of reduced proliferation,a degree of reduced proliferation,inhibit SARS-CoV-2 replication,
"C=C1C(=O)[C@]23[C@H](O)[C@H]1CC[C@H]2[C@@]12CO[C@@]3(O)[C@@H](O)[C@@H]1[C@](C)(COC(C)=O)CC[C@H]2O [Compound 3, Xerophilusin G]",,,,,,,,,,significantly reduced binding response; also recorded: abrogated binding completely
"C=C1C(=O)[C@@]23[C@H](O)C[C@@H]4C(C)(C)CC[C@H](O)[C@@]4(CO)[C@@H]2CC[C@@H]1[C@H]3O [Compound 6, Kamebakaurin]",~66,,,,,,,,,some ability to cocomplex with Nsp9COV19 is retained
